Molecules are shown by their SMILES.

Here are results for 1 compound from US20240130979A1, “COMPOSITIONS AND METHODS FOR TREATMENT OF SKIN CONDITIONS” (EpiTop, Inc., priority 2022, published 2024).

Common to all, as to format: cell-based, human
For data set [1], the system named is LOR. Nature of the data set: PM2.5-mediated inhibition of LOR in NHEKs (Example 4). Particulars: 0.01% thujopsene 24 hours, then PM2.5 (1 ng/mL) plus thujopsene 48 hours (FIG. 4B). The method, then: (§1) To investigate the effects of the PM2.5 on the expression of FLG and LOR, NHEKs were differentiated in the presence of 1.3 mmol/L of CaCl2) for 3 days. Then cells were stimulated with PM2.5 (1 ng/mL) for an additional 48 hours.
(§2) To examine whether thujopsene blocks PM2.5-mediated inhibition of epidermal barrier proteins such as FLG and LOR, NHEKs were incubated with thujopsene (0.01 v/v %) for 24 hours, and then cells were stimulated with PM2.5 (1 ng/mL) or combination of thujopsene (0.01 v/v %) and PM2.5 for an additional 48 hours. Total RNAs were isolated from the cells, and real time RT-PCR was performed. EpiLife cell culture medium with 0.1% DMSO was used as a vehicle control for all in vitro experiments, as PM2.5 was diluted with EpiLife cell culture medium with 0.1% DMSO.

For another data set, the system named is LL-37. Kind of data set: LL-37 gene expression in NHEKs (Example 5). The following applies: 0.01% and 0.02% thujopsene, 24 hours, dose-dependent, versus no thujopsene (FIG. 5B). How it is done:
(§3) The upregulation of expressions of HBD-3, LL-37, OR2AT4, and/or SIRT1 can promote would healing and the upregulation of SIRT1 can inhibit tumor cell growth in skin cancer. To investigate the effects of thujopsene on expression of RBD-3, LL-37, OR2AT4, and SIRT1, NHEKs were differentiated in the presence of 1.3 mmol/L of CaCl2) for 3 days. Then cells were stimulated with 0.01% or 0.02% thujopsene for an additional 24 hours. The cell culture medium with 0.1% was used as a vehicle control because thujopsene was diluted with 0.1% of DMSO in cell culture medium.
(§4) Total RNA was isolated from to the cells, and real time RT-PCRs were performed by using an ABI Prism 7300 sequence detector.

Data set [2] concerns LOR. Kind of data set: LOR gene expression in keratinocytes from atopic dermatitis patients (Example 3). The following applies: keratinocytes from AD patients, 0.01 v/v % thujopsene, 24 hours, P=0.01 (FIG. 3B). How it is done: (§5) Human epidermal keratinocytes taken from atopic dermatitis (AD) patients were differentiated in the presence of 1.3 mmol/L of CaCl2) for 3 days, and then the cells were stimulated with 0% and 0.01 v/v % of thujopsene for an additional 24 hours. Total RNA was isolated from keratinocytes. Gene expression levels of FLG and LOR were determined by real-time RT-PCR and normalized to the corresponding 18s RNA transcript in the cultured keratinocytes.

The test system of data set [3] is FLG. Kind of data set: Th2 cytokine (IL-4 and IL-13)-mediated inhibition of FLG in NHEKs (Example 2). The following applies: 0.01% thujopsene 24 hours, then IL-4 and IL-13 with thujopsene for 2 days (FIG. 2). The method, then: NHEKs were differentiated in the presence of 1.3 mmol/L of CaCl2) for 3 days. HEKs were incubated with 0.01% of thujopsene for 24 hours, and then the cells were continuously stimulated with IL-4 and IL-13 in the presence or absence of 0.01% of thujopsene for an additional 2 days. The gene expression of FLG was examined using real-time RT-PCR.

Data set [4] deals with SIRT1. Nature of the data set: SIRT1 gene expression in NHEKs (Example 5). Particulars: 0.01% and 0.02% thujopsene, 24 hours, dose-dependent, versus no thujopsene (FIG. 5D). How it is done:
as §3, §4

The subject of data set [5] is SIRT1. Nature of the data set: SIRT1 gene expression in NHEKs (Example 6). How it is done: (§6) IL-6 aging process and wrinkling and is induced by lipopolysaccharide (LPS) (PMID: 23659624). SIRT1 inhibits skin aging and wrinkling process (PMID: 24011076). To investigate the effects of thujopsene on expression of IL-6 and SIRT1, NHEKs were seeded at 2×10^5 cells per well and differentiated in the presence of 1.3 mmol/L of CaCl2) for 3 days. NHEKs were stimulated with 0.01% or 0.02% thujopsene for 24 hours, and then cells were stimulated with LPS (1 μg/mL) alone or a combination of LPS (1 μg/mL) and thujopsene (0.01%) for an additional 24 hours. The cell culture medium with 0.1% DMSO was used as a vehicle. Total RNAs were isolated from cells, and real time RT-PCRs were performed by using an ABI Prism 7300 sequence detector.

Data set [6] deals with FLG. Nature of the data set: PM2.5-mediated inhibition of FLG in NHEKs (Example 4). The following applies: 0.01% thujopsene 24 hours, then PM2.5 (1 ng/mL) plus thujopsene 48 hours (FIG. 4A). How it is done: as §1, §2
The subject of data set [7] is LOR. Kind of data set: LOR gene expression in NHEKs, real-time RT-PCR (Example 1). The following applies: 0.01 and 0.02 v/v % thujopsene, 24 hours, dose-dependent, normalized to 18s RNA (FIG. 1B). How it is done:
(§7) Normal human epidermal keratinocytes (NHEKs) were cultured in a conventional way. NHEKs (Life Technologies, Grand Island, NY, USA) were derived from neonatal foreskin and were grown in serum-free EpiLife cell culture medium (Life Technologies) containing 0.06 mmol/L calcium chloride, 1% human keratinocyte growth supplement S7 (Life Technologies), and 1% of gentamicin/amphotericin. To investigate the effects of thujopsene on the expressions of FLG and LOR, NHEKs were seeded at 2×10^5 cells per well (24-well plate) and differentiated in the presence of 1.3 mmol/L of CaCl2) for 3 days. Then the cells were stimulated with 0 v/v %, 0.01 v/v % and 0.02 v/v % of thujopsene, IL-4 and IL-13, or IFN-γ for an additional 24 hours. Total RNA was isolated from NHEKs. Gene expression levels of FLG and LOR were determined by real-time RT-PCR using an ABI Prism 7300 sequence detector. Gene expressions of FLG and LOR were normalized to the corresponding 18s RNA transcript in the cultured NHEKs.
In general terms: Quantitative PCR measures a nucleic acid by following its amplification.

A further data set deals with IL-6. Nature of the data set: LPS-induced IL-6 gene expression in NHEKs (Example 6). The following applies: thujopsene (0.01%) plus LPS (1 μg/mL), 24 hours, versus LPS alone (FIG. 6A). The method, then: as §6
The next data set has as its system HBD-3. Nature of the data set: HBD-3 gene expression in NHEKs (Example 5). The following applies: 0.01% and 0.02% thujopsene, 24 hours, dose-dependent, versus no thujopsene (FIG. 5A). The method, then:
as §3, §4

The next data set has as its system NHEKs. Kind of data set: LDH cell cytotoxicity assay in NHEKs (Example 7). How it is done: LDH cell cytotoxicity assay: NHEKs were plated at 2×10^5 cells per well in a 24-well plate and differentiated in the presence of 1.3 mmol/L of CaCl2) for 3 days. To examine cell toxicity of thujopsene, the cells were treated with various concentrations of thujopsene for 48 hours, and lactate dehydrogenase (LDH) release was then determined using CytoTox-One Homogeneous Membrane Integrity Assay (Promega, Madison, WI, USA) according to the manufacturer's instructions. Fluorescence was measured on a DTX880 Multimode Detector (Beckman Coulter, Brea, CA, USA) with an excitation wavelength of 560 nm and an emission wavelength of 590 nm. Samples were tested in triplicate and fluorescence results were normalized by subtracting a PBS blank and compared to the keratinocyte LDH release in response to the treatment with 1% triton X-100 solution (maximum LDH release).

Data set [8] relates to FLG. Kind of data set: FLG gene expression in NHEKs, real-time RT-PCR (Example 1). The following applies: 0.01 and 0.02 v/v % thujopsene, 24 hours, dose-dependent, normalized to 18s RNA (FIG. 1A). How it is done: as §7
In a further data set the test system is OR2AT4. Nature of the data set: OR2AT4 gene expression in NHEKs (Example 5). The following applies: 0.01% and 0.02% thujopsene, 24 hours, dose-dependent, versus no thujopsene (FIG. 5C). How it is done:
as §3, §4

Data set [9] has as its system FLG. Nature of the data set: FLG gene expression in keratinocytes from atopic dermatitis patients (Example 3). The following applies: keratinocytes from AD patients, 0.01 v/v % thujopsene, 24 hours, P<0.05 (FIG. 3A). How it is done: as §5

With `CC1=CC[C@]2(C)CCCC(C)(C)[C@@]23C[C@@H]13` [thujopsene], the “level of expression of the LOR gene, PM2.5 plus thujopsene versus control” value in the data set with LOR [1] was “about equal to the control”. Also, the “gene expression of LL-37” value in the data set on LL-37 is given as “significantly increased”. Further, the “LOR gene expression compared to vehicle” value with LOR [2] is listed as “significantly increased”. The “FLG gene expression, Th2 cytokines plus thujopsene compared with Th2 cytokines alone” value in the data set on FLG [3] is “significantly (P<0.01) increased”. Also, the “gene expression of SIRT1” value in the data set with SIRT1 [4] is “significantly increased”; in the data set on SIRT1 [5] (0.01% thujopsene, P<0.05 versus no thujopsene (FIG. 6B)) it was “significantly increased”; in the data set on SIRT1 [5] (0.02% thujopsene, P<0.01 versus no thujopsene (FIG. 6B)), “significantly increased”. For the same compound, the “level of expression of the FLG gene, PM2.5 plus thujopsene versus control” value in the data set with FLG [6] is “higher than the control”. In addition, the LOR gene expression entry with LOR [7] is “significantly increases”. For the same compound, the “LPS-induced expression of IL-6” value with IL-6 is listed as “significantly (P<0.01) attenuated”. Also, the “gene expression of RBD-3” value with HBD-3 is “significantly increased”. Besides, the “toxicity to NHEKs” value in the data set with NHEKs (thujopsene up to 0.04 v/v % (FIG. 7 legend)) was “not toxic”; in the data set on NHEKs (thujopsene up to 4 v/v %, 48 hours, LDH release (FIG. 7)) it was “not toxic”. Also, the “LDH release compared to cells treated with media alone” value in the data set on NHEKs (thujopsene up to 4 v/v %, 48 hours (FIG. 7)) is “significantly decreased”. Besides, the FLG gene expression entry in the data set on FLG [8] is recorded as “significantly increases”. Besides, the “gene expression of OR2AT4” value in the data set on OR2AT4 was “significantly increased”. Besides, the “FLG gene expression compared to vehicle” value in the data set with FLG [9] is on record as “significantly increased”.
